For this assay, the target named is T1, human GLP-1 receptor (Homo sapiens, UniProt P43220).
T1 construct: expressed in transfected cells; host or cells: BHK cells (parent BHKTS13), clone FCW467-12A/KZ10-1, with CRE luciferase
Description: GLP-1 receptor potency, CRE luciferase reporter gene assay in BHK cells. Type of assay: cell-based. Particulars: BHK cells expressing human GLP-1 receptor, read-out: EC50 GLP-1R. The method in brief:
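Potency as cAMP-driven firefly luciferase signal after 3 h, 37° C exposure to 10-fold dilutions (final 1×10EE-13–1×10EE-6 M). Stable hGLP-1R/CRE-luc BHK clone, 5×10EE3 cells/well, medium containing 2% ovalbumin and 0.2% Pluronic F-68; EC50 (pM) from variable-slope non-linear regression.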
For orientation: Reporter assays use an easily measured gene product as a stand-in for the process of interest.

Molecules are shown by their SMILES. Numbered stars: 1 amine (or outer) side, 2 acyl side, 3 side chain; on linkers, the order of the positions; unused ones are H or OH. Square brackets hold non-standard residues; d marks the D form. Side chains are listed from the residue outwards. Peptide text beside a SMILES is read from it. * marks the point of attachment. C18 diacid = O=C(O)CCCCCCCCCCCCCCCCC(=O)*; γGlu = O=C(O)[C@H](CCC(=O)[*:2])N[*:1]; Ac4c = NC1(C(=O)O)CCC1; AEEA = NCCOCCOCC(=O)O; Aib = CC(C)(N)C(=O)O

T1 sequence (P43220 24-463): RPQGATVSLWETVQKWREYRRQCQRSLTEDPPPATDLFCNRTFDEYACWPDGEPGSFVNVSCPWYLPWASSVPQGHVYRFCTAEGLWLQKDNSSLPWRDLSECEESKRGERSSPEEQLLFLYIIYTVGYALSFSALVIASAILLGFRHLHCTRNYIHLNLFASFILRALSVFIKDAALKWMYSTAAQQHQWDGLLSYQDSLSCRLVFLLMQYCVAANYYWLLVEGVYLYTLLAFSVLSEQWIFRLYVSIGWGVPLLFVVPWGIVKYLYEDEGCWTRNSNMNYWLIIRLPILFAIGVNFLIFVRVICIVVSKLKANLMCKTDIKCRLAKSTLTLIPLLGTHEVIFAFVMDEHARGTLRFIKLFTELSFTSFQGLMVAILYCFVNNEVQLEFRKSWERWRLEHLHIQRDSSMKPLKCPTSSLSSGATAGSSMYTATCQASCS

As to `CC(C)C[C@H](NC(=O)[C@H](Cc1ccc(O)cc1)NC(=O)[C@H](CCCCN)NC(=O)[C@H](CO)NC(=O)[C@H](CC(C)C)NC(=O)[C@H](CC(=O)O)NC(=O)[C@H](CO)NC(=O)[C@@H](NC(=O)[C@H](Cc1ccccc1)NC(=O)[C@@H](NC(=O)CNC(=O)[C@H](CCC(N)=O)NC(=O)C(C)(C)NC(=O)[C@@H](N)Cc1c[nH]cn1)[C@@H](C)O)[C@@H](C)O)C(=O)N[C@@H](CCC(=O)O)C(=O)N[C@@H](CO)C(=O)N[C@@H](CCCNC(=N)N)C(=O)N[C@@H](CCCNC(=N)N)C(=O)N[C@@H](C)C(=O)N[C@@H](CCCNC(=N)N)C(=O)N[C@@H](CCC(=O)O)C(=O)N[C@@H](Cc1ccccc1)C(=O)N[C@H](C(=O)N[C@@H](CCC(N)=O)C(=O)N[C@@H](Cc1c[nH]c2ccccc12)C(=O)N[C@@H](CC(C)C)C(=O)N[C@@H](CC(C)C)C(=O)N[C@@H](CCCCNC(=O)CC[C@H](NC(=O)CC[C@H](NC(=O)COCCOCCNC(=O)COCCOCCNC(=O)CC[C@H](NC(=O)CC[C@H](NC(=O)CCCCCCCCCCCCCCCCC(=O)O)C(=O)O)C(=O)O)C(=O)O)C(=O)O)C(=O)N[C@H](C(N)=O)[C@@H](C)O)C(C)C` [Example 60, N^ε28-[(4S)-4-carboxy-4-[[(4S)-4-carboxy-4-[[2-[2-[2-[[2-[2-[2-[[(4S)-4-carboxy-4-[[(4S)-4-carboxy-4-(17-carboxyheptadecanoylamino)butanoyl]amino]butanoyl]amino]ethoxy]ethoxy]acetyl]amino]ethoxy]ethoxy]acetyl]amino]butanoyl]amino]butanoyl]-[Aib2,Leu10,Glu15,Arg20,Glu21,Leu27,Lys28]-Glucagon amide] (H-H[Aib]QGTFTSDLSKYLESRRAREFVQWLLK([γGlu-γGlu-AEEA-AEEA-γGlu-γGlu-C18 diacid])T-NH2; N-terminus assumed), the half-maximal effective concentration (EC50) came out at 6 pM.
`CC(C)C[C@H](NC(=O)[C@H](Cc1ccc(O)cc1)NC(=O)[C@H](CCCCN)NC(=O)[C@H](CO)NC(=O)[C@H](CC(C)C)NC(=O)[C@H](CC(=O)O)NC(=O)[C@H](CO)NC(=O)[C@@H](NC(=O)[C@H](Cc1ccccc1)NC(=O)[C@@H](NC(=O)CNC(=O)[C@H](CCC(N)=O)NC(=O)C1(NC(=O)[C@@H](N)Cc2c[nH]cn2)CCC1)[C@@H](C)O)[C@@H](C)O)C(=O)N[C@@H](CCC(=O)O)C(=O)N[C@@H](CO)C(=O)N[C@@H](CCCNC(=N)N)C(=O)N[C@@H](CCCNC(=N)N)C(=O)N[C@@H](C)C(=O)N[C@@H](CCCNC(=N)N)C(=O)N[C@@H](CCC(=O)O)C(=O)N[C@@H](Cc1ccccc1)C(=O)N[C@H](C(=O)N[C@@H](CCC(N)=O)C(=O)N[C@@H](Cc1c[nH]c2ccccc12)C(=O)N[C@@H](CC(C)C)C(=O)N[C@@H](CC(C)C)C(=O)N[C@@H](CCCCNC(=O)CC[C@H](NC(=O)CC[C@H](NC(=O)COCCOCCNC(=O)COCCOCCNC(=O)CC[C@H](NC(=O)CC[C@H](NC(=O)CCCCCCCCCCCCCCCCC(=O)O)C(=O)O)C(=O)O)C(=O)O)C(=O)O)C(=O)N[C@H](C(N)=O)[C@@H](C)O)C(C)C` [Example 61, N^ε28-[(4S)-4-carboxy-4-[[(4S)-4-carboxy-4-[[2-[2-[2-[[2-[2-[2-[[(4S)-4-carboxy-4-[[(4S)-4-carboxy-4-(17-carboxyheptadecanoylamino)butanoyl]amino]butanoyl]amino]ethoxy]ethoxy]acetyl]amino]ethoxy]ethoxy]acetyl]amino]butanoyl]amino]butanoyl]-[Acb2,Leu10,Glu15,Arg20,Glu21,Leu27,Lys28]-Glucagon amide] (H-H[Ac4c]QGTFTSDLSKYLESRRAREFVQWLLK([γGlu-γGlu-AEEA-AEEA-γGlu-γGlu-C18 diacid])T-NH2; N-terminus assumed): the EC50 was found to be 6 pM.
On to `CC(C)C[C@H](NC(=O)[C@H](Cc1ccc(O)cc1)NC(=O)[C@H](CCCNC(=N)N)NC(=O)[C@H](CO)NC(=O)[C@H](CC(C)C)NC(=O)[C@H](CC(=O)O)NC(=O)[C@H](CO)NC(=O)[C@@H](NC(=O)[C@H](Cc1ccccc1)NC(=O)[C@@H](NC(=O)CNC(=O)[C@H](CCC(N)=O)NC(=O)C(C)(C)NC(=O)[C@@H](N)Cc1c[nH]cn1)[C@@H](C)O)[C@@H](C)O)C(=O)N[C@@H](CC(=O)O)C(=O)N[C@@H](C)C(=O)N[C@@H](CCCNC(=N)N)C(=O)N[C@@H](CCCNC(=N)N)C(=O)N[C@@H](C)C(=O)N[C@@H](CCCNC(=N)N)C(=O)N[C@@H](CC(=O)O)C(=O)N[C@@H](Cc1ccccc1)C(=O)N[C@H](C(=O)N[C@@H](CCC(N)=O)C(=O)N[C@@H](Cc1c[nH]c2ccccc12)C(=O)N[C@@H](CC(C)C)C(=O)N[C@@H](CC(C)C)C(=O)N[C@@H](CCCCNC(=O)CC[C@H](NC(=O)CC[C@H](NC(=O)CC[C@H](NC(=O)CCCCCCCCCCCCCCCCC(=O)O)C(=O)O)C(=O)O)C(=O)O)C(=O)N[C@H](C(N)=O)[C@@H](C)O)C(C)C` [Example 62, N^ε28-[(4S)-4-carboxy-4-[[(4S)-4-carboxy-4-[[(4S)-4-carboxy-4-(17-carboxyheptadecanoylamino)butanoyl]amino]butanoyl]amino]butanoyl]-[Aib2,Leu10,Arg12,Ala16,Arg20,Leu27,Lys28]-Glucagon amide] (H-H[Aib]QGTFTSDLSRYLDARRARDFVQWLLK([γGlu-γGlu-γGlu-C18 diacid])T-NH2; N-terminus assumed), for which the EC50 was found to be 8 pM.
As for `CC(C)C[C@H](NC(=O)[C@H](Cc1ccc(O)cc1)NC(=O)[C@H](CCCCN)NC(=O)[C@H](CO)NC(=O)[C@H](CC(C)C)NC(=O)[C@H](CC(=O)O)NC(=O)[C@H](CO)NC(=O)[C@@H](NC(=O)[C@H](Cc1ccccc1)NC(=O)[C@@H](NC(=O)CNC(=O)[C@H](CCC(N)=O)NC(=O)C1(NC(=O)[C@@H](N)Cc2c[nH]cn2)CCC1)[C@@H](C)O)[C@@H](C)O)C(=O)N[C@@H](CCC(=O)O)C(=O)N[C@@H](CO)C(=O)N[C@@H](CCCNC(=N)N)C(=O)N[C@@H](CCCNC(=N)N)C(=O)N[C@@H](C)C(=O)N[C@@H](CCC(N)=O)C(=O)N[C@@H](CC(=O)O)C(=O)N[C@@H](Cc1ccccc1)C(=O)N[C@H](C(=O)N[C@@H](CCC(N)=O)C(=O)N[C@@H](Cc1c[nH]c2ccccc12)C(=O)N[C@@H](CC(C)C)C(=O)N[C@@H](CC(C)C)C(=O)N[C@@H](CCCCNC(=O)COCCOCCNC(=O)COCCOCCNC(=O)CC[C@H](NC(=O)CC[C@H](NC(=O)CC[C@H](NC(=O)CCCCCCCCCCCCCCCCC(=O)O)C(=O)O)C(=O)O)C(=O)O)C(=O)N[C@H](C(N)=O)[C@@H](C)O)C(C)C` [Example 63, N^ε28-[2-[2-[2-[[2-[2-[2-[[(4S)-4-carboxy-4-[[(4S)-4-carboxy-4-[[(4S)-4-carboxy-4-(17-carboxyheptadecanoylamino)butanoyl]amino]butanoyl]amino]butanoyl]amino]ethoxy]ethoxy]acetyl]amino]ethoxy]ethoxy]acetyl]-[Acb2,Leu10,Glu15,Leu27,Lys28]-Glucagon amide] (H-H[Ac4c]QGTFTSDLSKYLESRRAQDFVQWLLK([AEEA-AEEA-γGlu-γGlu-γGlu-C18 diacid])T-NH2; N-terminus assumed), the EC50 is 7 pM.
As to `CC(C)C[C@H](NC(=O)[C@H](Cc1ccc(O)cc1)NC(=O)[C@H](CCCCN)NC(=O)[C@H](CO)NC(=O)[C@H](CC(C)C)NC(=O)[C@H](CC(=O)O)NC(=O)[C@H](CO)NC(=O)[C@@H](NC(=O)[C@H](Cc1ccccc1)NC(=O)[C@@H](NC(=O)CNC(=O)[C@H](CCC(N)=O)NC(=O)C(C)(C)NC(=O)[C@@H](N)Cc1c[nH]cn1)[C@@H](C)O)[C@@H](C)O)C(=O)N[C@@H](CC(=O)O)C(=O)N[C@@H](C)C(=O)N[C@@H](CCCNC(=N)N)C(=O)N[C@@H](CCCNC(=N)N)C(=O)N[C@@H](C)C(=O)N[C@@H](CCCNC(=N)N)C(=O)N[C@@H](CC(=O)O)C(=O)N[C@@H](Cc1ccccc1)C(=O)N[C@H](C(=O)N[C@@H](CCC(N)=O)C(=O)N[C@@H](Cc1c[nH]c2ccccc12)C(=O)N[C@@H](CC(C)C)C(=O)N[C@@H](CC(C)C)C(=O)N[C@@H](CC(N)=O)C(=O)N[C@@H](CCCCNC(=O)CC[C@H](NC(=O)CC[C@H](NC(=O)COCCOCCNC(=O)COCCOCCNC(=O)CC[C@H](NC(=O)CCCCCCCCCCCCCCCCC(=O)O)C(=O)O)C(=O)O)C(=O)O)C(N)=O)C(C)C` [Example 65] (H-H[Aib]QGTFTSDLSKYLDARRARDFVQWLLNK([γGlu-γGlu-AEEA-AEEA-γGlu-C18 diacid])-NH2; N-terminus assumed), the concentration for a half-maximal effect (EC50) is 6 pM.
As for `CC(C)C[C@H](NC(=O)[C@H](Cc1ccc(O)cc1)NC(=O)[C@H](CCCCN)NC(=O)[C@H](CO)NC(=O)[C@H](CC(C)C)NC(=O)[C@H](CC(=O)O)NC(=O)[C@H](CO)NC(=O)[C@@H](NC(=O)[C@H](Cc1ccccc1)NC(=O)[C@@H](NC(=O)CNC(=O)[C@H](CCC(N)=O)NC(=O)C(C)(C)NC(=O)[C@@H](N)Cc1c[nH]cn1)[C@@H](C)O)[C@@H](C)O)C(=O)N[C@@H](CC(=O)O)C(=O)N[C@@H](C)C(=O)N[C@@H](CCCNC(=N)N)C(=O)N[C@@H](CCCNC(=N)N)C(=O)N[C@@H](C)C(=O)N[C@@H](CCCNC(=N)N)C(=O)N[C@@H](CC(=O)O)C(=O)N[C@@H](Cc1ccccc1)C(=O)N[C@H](C(=O)N[C@@H](CCC(N)=O)C(=O)N[C@@H](Cc1c[nH]c2ccccc12)C(=O)N[C@@H](CC(C)C)C(=O)N[C@@H](CC(C)C)C(=O)N[C@@H](CO)C(=O)N[C@@H](CCCCNC(=O)CC[C@H](NC(=O)CC[C@H](NC(=O)COCCOCCNC(=O)COCCOCCNC(=O)CC[C@H](NC(=O)CCCCCCCCCCCCCCCCC(=O)O)C(=O)O)C(=O)O)C(=O)O)C(N)=O)C(C)C` [Example 66, N^ε29-[(4S)-4-carboxy-4-[[(4S)-4-carboxy-4-[[2-[2-[2-[[2-[2-[2-[[(4S)-4-carboxy-4-(17-carboxyheptadecanoylamino)butanoyl]amino]ethoxy]ethoxy]acetyl]amino]ethoxy]ethoxy]acetyl]amino]butanoyl]amino]butanoyl]-[Aib2,Leu10,Ala16,Arg20,Leu27,Ser28,Lys29]-Glucagon amide] (H-H[Aib]QGTFTSDLSKYLDARRARDFVQWLLSK([γGlu-γGlu-AEEA-AEEA-γGlu-C18 diacid])-NH2; N-terminus assumed), the 50% effective concentration (EC50) amounted to 5 pM.

What is called EC50 is the midpoint of the concentration-response curve.

For the origin of these results see patent US9474790B2, “Stable, protracted GLP-1/glucagon receptor co-agonists for medical use” (Novo Nordisk A/S, priority 2013, dated 2016).
